Measured values: patent US12187728B2 (Raze Therapeutics, Inc., priority 2015, dated 2025)

Target: T1, Human MTHFD2 (Homo sapiens, UniProt P13995)
T1 construct: residues 36-350 in Uniport ID P13995; His6 (N); made in house; host or cells: E. coli
T1 sequence (P13995 36-350): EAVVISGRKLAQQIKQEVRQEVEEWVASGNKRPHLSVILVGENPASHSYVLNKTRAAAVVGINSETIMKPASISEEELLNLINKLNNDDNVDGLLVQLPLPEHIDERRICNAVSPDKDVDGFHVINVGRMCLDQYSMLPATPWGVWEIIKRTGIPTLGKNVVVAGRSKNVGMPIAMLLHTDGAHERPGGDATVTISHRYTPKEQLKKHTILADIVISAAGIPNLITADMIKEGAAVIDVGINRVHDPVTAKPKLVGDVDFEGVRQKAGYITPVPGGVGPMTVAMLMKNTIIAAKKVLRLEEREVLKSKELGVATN
Assay: MTHFD2 Activity Assay (dehydrogenase activity, diaphorase/resazurin coupled fluorescence)
Type: biochemical
Conditions: inhibitory activity (IC50 and/or binding constant); 0.2 nM MTHFD2, 11 concentrations
How it was run: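 Steps: compound + 0.2 nM enzyme, 15 min, pH 8.0 Hepes buffer; add 70 μM CH2-THF, 1 mM NAD+, 100 μM resazurin, diaphorase; 30 min; quench with EDTA; read fluorescence. Data normalized to DMSO (100%) and no-enzyme (0%) wells.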

Row | SMILES | IC50 [nM]
1 | Cn1c(Nc2cccc(CCC(=O)O)n2)nc2c1c(=O)n(Cc1cc3c(Cl)cccc3[nH]1)c(=O)n2C [Example 294, 3-(6-(1-((4-chloro-1H-indol-2-yl)methyl)-3,7-dimethyl-2,6-dioxo-2,3,6,7-tetrahydro-1H-purin-8-ylamino)pyridin-2-yl)propanoic acid] | 10 to 1000
2 | CCc1cccc2cc(Cn3c(=O)c4c(nc(C(C)N)n4C)n(C)c3=O)ccc12 (stereo not shown) [Example 463, 8-(1-aminoethyl)-1-((5-ethylnaphthalen-2-yl)methyl)-3,7-dimethyl-1H-purine-2,6(3H,7H)-dione] | 10 to 1000
3 | Cn1c(Nc2cccc(C#N)c2)nc2c1c(=O)n(Cc1ccc(Cl)c(Cl)c1)c(=O)n2C [Example 130, 3-(1-(3,4-dichlorobenzyl)-3,7-dimethyl-2,6-dioxo-2,3,6,7-tetrahydro-1H-purin-8-ylamino)benzonitrile] | 1000 to 5000
4 | Cn1c(N[C@H]2CCCNC2)nc2c1c(=O)n(Cc1ccc(Cl)c(Cl)c1)c(=O)n2C [Example 68, 1-[(3,4-dichlorophenyl)methyl]-3,7-dimethyl-8-{[(3S)-piperidin-3-yl]amino}-2,3,6,7-tetrahydro-1H-purine-2,6-dione] | 1000 to 5000
5 | COc1ccc2c(c1)cc(Cn1c(=O)c3c(ncn3C)n(C)c1=O)n2C [Example 238, 1-((5-methoxy-1-methyl-1H-indol-2-yl)methyl)-3,7-dimethyl-1H-purine-2,6(3H,7H)-dione] | > 10000
6 | Cn1c(Nc2ccncn2)nc2c1c(=O)n(Cc1cc3cc(Cl)ccc3[nH]1)c(=O)n2C [Example 208, 1-((5-chloro-1H-indol-2-yl)methyl)-3,7-dimethyl-8-(pyrimidin-4-ylamino)-1H-purine-2,6(3H,7H)-dione] | 10 to 1000
7 | Cn1c(N[C@H]2CCC[C@H]2O)nc2c1c(=O)n(Cc1ccc(Cl)c(Cl)c1)c(=O)n2C [Example 94, 1-[(3,4-dichlorophenyl)methyl]-8-{[(1S,2R)-2-hydroxycyclopentyl]amino}-3,7-dimethyl-2,3,6,7-tetrahydro-1H-purine-2,6-dione] | 10 to 1000
8 | COc1ccc2c(c1)cc(Cn1c(=O)c3c(nc(N[C@H]4CC[C@@H](O)C4)n3C)n(C)c1=O)n2C [Example 188, 8-((1S,3R)-3-hydroxycyclopentylamino)-1-((5-methoxy-1-methyl-1H-indol-2-yl)methyl)-3,7-dimethyl-1H-purine-2,6(3H,7H)-dione] | 1000 to 5000
9 | Cn1c(N2CCC(O)CC2)nc2c1c(=O)n(Cc1cc3ccccc3[nH]1)c(=O)n2C [Example 191, 1-((1H-indol-2-yl)methyl)-8-(4-hydroxypiperidin-1-yl)-3,7-dimethyl-1H-purine-2,6(3H,7H)-dione] | 10 to 1000
10 | Cn1c(Nc2ccnc([C@H]3C[C@@H]3C(=O)O)c2)nc2c1c(=O)n(Cc1cc3c(Cl)cccc3[nH]1)c(=O)n2C (racemic) [Example 321, (±)-trans-2-(4-((1-((4-chloro-1H-indol-2-yl)methyl)-3,7-dimethyl-2,6-dioxo-2,3,6,7-tetrahydro-1H-purin-8-yl)amino)pyridin-2-yl)cyclopropanecarboxylic acid] | 10 to 1000
11 | Cn1c(Nc2ccc(-c3nnn[nH]3)cc2)nc2c1c(=O)n(Cc1cc3c(Cl)cccc3[nH]1)c(=O)n2C [Example 397, 8-((4-(1H-tetrazol-5-yl)phenyl)amino)-1-((4-chloro-1H-indol-2-yl)methyl)-3,7-dimethyl-1H-purine-2,6(3H,7H)-dione] | 10 to 1000
12 | Cn1c(Nc2ccc(C(N)=O)nc2)nc2c1c(=O)n(Cc1cc3c(Cl)cccc3[nH]1)c(=O)n2C [Example 409, 5-(1-((4-chloro-1H-indol-2-yl)methyl)-3,7-dimethyl-2,6-dioxo-2,3,6,7-tetrahydro-1H-purin-8-ylamino)picolinamide] | 10 to 1000
13 | Cn1c(N[C@H]2CC[C@@H](O)C2)nc2c1c(=O)n(Cc1ccc3cc[nH]c3c1)c(=O)n2C (racemic) [Example 163, (±)-1-((1H-indol-6-yl)methyl)-8-((cis)-3-hydroxycyclopentylamino)-3,7-dimethyl-1H-purine-2,6(3H,7H)-dione] | 1000 to 5000
14 | COc1nc2c(c(=O)n(Cc3cc4cccc(Cl)c4[nH]3)c(=O)n2C)n1C [Example 421, 1-[(7-chloro-1H-indol-2-yl)methyl]-8-methoxy-3,7-dimethyl-purine-2,6-dione] | 10 to 1000
15 | Cn1c(Cn2c(=O)c3c(nc(CCN4CCOCC4)n3C)n(C)c2=O)cc2cc(Cl)ccc21 [Example 225, 1-((5-chloro-1-methyl-1H-indol-2-yl)methyl)-3,7-dimethyl-8-(2-morpholinoethyl)-1H-purine-2,6(3H,7H)-dione] | 10 to 1000
16 | Cn1c(NCC(N)=O)nc2c1c(=O)n(Cc1cc3c(Cl)cccc3[nH]1)c(=O)n2C [Example 360, 2-(1-((4-chloro-1H-indol-2-yl)methyl)-3,7-dimethyl-2,6-dioxo-2,3,6,7-tetrahydro-1H-purin-8-ylamino)acetamide] | 10 to 1000
17 | Cn1c(N[C@@H]2CCCNC2)nc2c1c(=O)n(Cc1ccc(Cl)c(Cl)c1)c(=O)n2C [Example 69, 1-[(3,4-dichlorophenyl)methyl]-3,7-dimethyl-8-{[(3R)-piperidin-3-yl]amino}-2,3,6,7-tetrahydro-1H-purine-2,6-dione] | 10 to 1000
18 | C[C@@H](Nc1nc2c(c(=O)n(Cc3ccc(Cl)c(Cl)c3)c(=O)n2C)n1C)C(=O)O [Example 169, (R)-2-(1-(3,4-dichlorobenzyl)-3,7-dimethyl-2,6-dioxo-2,3,6,7-tetrahydro-1H-purin-8-ylamino)propanoic acid] | 10 to 1000
19 | Cn1c(NCCCO)nc2c1c(=O)n(Cc1ccc(C(F)(F)F)c(Cl)c1)c(=O)n2C [Example 73, 1-{[3-chloro-4-(trifluoromethyl)phenyl]methyl}-8-[(3-hydroxypropyl)amino]-3,7-dimethyl-2,3,6,7-tetrahydro-1H-purine-2,6-dione] | 1000 to 5000

Continued, values first:

Row | IC50 [nM] | SMILES
20 | 10 to 1000 | Cc1cccc2cc(Cn3c(=O)c4c(nc(Nc5ccncc5)n4C)n(C)c3=O)ccc12 [Example 410, 3,7-dimethyl-1-((5-methylnaphthalen-2-yl)methyl)-8-(pyridin-4-ylamino)-1H-purine-2,6(3H,7H)-dione]
21 | 10 to 1000 | Cn1c(=O)n(Cc2ccc(Cl)c(Cl)c2)c(=O)c2c1nc(NC1CCCC(C(=O)O)C1)n2CCC(N)=O (stereo not shown) [Example 318, 3-(7-(3-amino-3-oxopropyl)-1-(3,4-dichlorobenzyl)-3-methyl-2,6-dioxo-2,3,6,7-tetrahydro-1H-purin-8-ylamino)cyclohexanecarboxylic acid]
22 | 10 to 1000 | Cn1c(N2CCCC(N)C2)nc2c1c(=O)n(Cc1cc3c(Cl)cccc3[nH]1)c(=O)n2C (stereo not shown) [Example 371, 8-(3-aminopiperidin-1-yl)-1-((4-chloro-1H-indol-2-yl)methyl)-3,7-dimethyl-1H-purine-2,6(3H,7H)-dione]
23 | 10 to 1000 | Cn1c(NC(CO)CO)nc2c1c(=O)n(Cc1ccc(Cl)c(Cl)c1)c(=O)n2C [Example 53, 1-[(3,4-dichlorophenyl)methyl]-8-[(1,3-dihydroxypropan-2-yl)amino]-3,7-dimethyl-2,3,6,7-tetrahydro-1H-purine-2,6-dione]
24 | 1000 to 5000 | Cn1c(N[C@H]2CC[C@@H](O)C2)nc2c1c(=O)n(Cc1nc3ccccc3[nH]1)c(=O)n2C [Example 99, 1-((1H-benzo[d]imidazol-2-yl)methyl)-8-((1S,3R)-3-hydroxycyclopentylamino)-3,7-dimethyl-1H-purine-2,6(3H,7H)-dione]
25 | 10 to 1000 | Cn1c(=O)n(Cc2ccc(Cl)c(Cl)c2)c(=O)c2c1nc(NC1CCCC(C(=O)O)C1)n2CCO (stereo not shown) [Example 316, 3-(1-(3,4-dichlorobenzyl)-7-(2-hydroxyethyl)-3-methyl-2,6-dioxo-2,3,6,7-tetrahydro-1H-purin-8-ylamino)cyclohexanecarboxylic acid]
26 | 10 to 1000 | COc1ccc2[nH]c(Cn3c(=O)c4c(nc(Nc5ccncc5)n4C)n(C)c3=O)cc2c1 [Example 183, 1-((5-methoxy-1H-indol-2-yl)methyl)-3,7-dimethyl-8-(pyridin-4-ylamino)-1H-purine-2,6(3H,7H)-dione]
27 | 10 to 1000 | Cn1c(N[C@@H]2CCC[C@H]2O)nc2c1c(=O)n(Cc1ccc(Cl)c(Cl)c1)c(=O)n2C [Example 93, 1-[(3,4-dichlorophenyl)methyl]-8-{[(1R,2R)-2-hydroxycyclopentyl]amino}-3,7-dimethyl-2,3,6,7-tetrahydro-1H-purine-2,6-dione]
28 | > 10000 | Cn1c(NCCCO)nc2c1c(=O)n(Cc1ccc(Cl)c(CO)c1)c(=O)n2C [Example 166, 1-{[4-chloro-3-(hydroxymethyl)phenyl]methyl}-8-[(3-hydroxypropyl)amino]-3,7-dimethyl-2,3,6,7-tetrahydro-1H-purine-2,6-dione]
29 | > 10000 | Cn1c(NC2(C(=O)O)CCCC2)nc2c1c(=O)n(Cc1ccc(C(F)(F)F)cc1)c(=O)n2C [Example 149, 1-(3,7-dimethyl-2,6-dioxo-1-(4-(trifluoromethyl)benzyl)-2,3,6,7-tetrahydro-1H-purin-8-ylamino)cyclopentanecarboxylic acid]
30 | 10 to 1000 | Cn1c(Nc2ccc3c(c2)NC(=O)CCC3)nc2c1c(=O)n(Cc1ccc(Cl)c(Cl)c1)c(=O)n2C [Example 109, 1-(3,4-dichlorobenzyl)-3,7-dimethyl-8-(2-oxo-2,3,4,5-tetrahydro-1H-benzo[b]azepin-8-ylamino)-1H-purine-2,6(3H,7H)-dione]
31 | > 10000 | COc1cc(Cn2c(=O)c3c(ncn3C)n(C)c2=O)ccc1Cl [Example 249, 1-(4-chloro-3-methoxybenzyl)-3,7-dimethyl-1H-purine-2,6(3H,7H)-dione]
